From patent US8906933B2, “Dihydropyrimidin-2(1H)-one compounds as neurokinin-3 receptor antagonists” (N30 Pharmaceuticals, Inc., priority 2010, dated 2014) come the findings set out here.

A value given as a limit tells only on which side of the number the result lay.

T1 sequence (P29371 whole entry): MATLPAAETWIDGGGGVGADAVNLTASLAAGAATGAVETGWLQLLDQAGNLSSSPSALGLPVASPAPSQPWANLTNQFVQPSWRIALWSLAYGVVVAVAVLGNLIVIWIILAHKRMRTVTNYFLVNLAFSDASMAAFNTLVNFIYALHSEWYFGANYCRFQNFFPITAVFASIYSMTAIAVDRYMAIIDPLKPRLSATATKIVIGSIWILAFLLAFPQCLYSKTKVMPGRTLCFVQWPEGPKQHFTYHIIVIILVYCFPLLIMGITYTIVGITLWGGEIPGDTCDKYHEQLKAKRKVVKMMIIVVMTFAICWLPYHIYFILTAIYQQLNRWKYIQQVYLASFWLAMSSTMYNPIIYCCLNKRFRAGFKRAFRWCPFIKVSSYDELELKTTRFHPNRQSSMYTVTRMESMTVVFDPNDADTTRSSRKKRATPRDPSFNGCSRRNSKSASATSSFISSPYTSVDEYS

The first experiment has as its target T1, human NK3 receptor (Homo sapiens (Human), UniProt P29371). The experiment in a line: Human NK3 receptor binding assay at 10 μM. The following applies: 10 μM test compound; [3H]SR142801, CHO cell membranes; read-out: percent inhibition at 10 μM. The procedure: Antagonist activity was evaluated at a concentration of 10 μM for a representative subset of test compounds, and the results were expressed as the percent inhibition at that concentration.
Each test compound was evaluated at a single concentration of 10 μM. […] The results are expressed as a percent of control specific binding ((measured specific binding/control specific binding)×100) obtained in the presence of the test compounds.
Take `CCOc1cc(C2NC(=O)NC(c3ccccc3)=C2c2cccc(C#N)c2)cc([N+](=O)[O-])c1O` (centres unmarked) [3-(4-(3-ethoxy-4-hydroxy-5-nitrophenyl)-2-oxo-6-phenyl-1,2,3,4-tetrahydropyrimidin-5-yl)benzonitrile]: the inhibition at 10 µM is above 50%.

In the case of `CCOc1cc(C2NC(=O)NC(c3ccoc3)=C2c2ccccc2)cc([N+](=O)[O-])c1O` (centres unmarked) [4-(3-ethoxy-4-hydroxy-5-nitrophenyl)-6-(furan-3-yl)-5-phenyl-3,4-dihydropyrimidin-2(1H)-one], the inhibition at 10 µM is above 50%.

Consider `CCOc1cc(C2NC(=O)NC(c3cccs3)=C2c2ccccc2)cc([N+](=O)[O-])c1O` (centres unmarked) [4-(3-ethoxy-4-hydroxy-5-nitrophenyl)-5-phenyl-6-(thiophen-2-yl)-3,4-dihydropyrimidin-2(1H)-one], for which the inhibition at 10 µM was above 50%.

Regarding `CCOc1cc(C2NC(=O)NC(c3ccccc3)=C2c2ccsc2)cc([N+](=O)[O-])c1O` (centres unmarked) [4-(3-ethoxy-4-hydroxy-5-nitrophenyl)-6-phenyl-5-(thiophen-3-yl)-3,4-dihydropyrimidin-2(1H)-one], the inhibition at 10 µM is above 50%.

For `CCOc1cc(C2NC(=O)NC(c3ccccc3)=C2c2ccccc2)cc([N+](=O)[O-])c1O` (centres unmarked) [4-(3-ethoxy-4-hydroxy-5-nitrophenyl)-5,6-diphenyl-3,4-dihydropyrimidin-2(1H)-one], the inhibition at 10 µM was above 50%.

Consider `CCOc1cc(C2NC(=O)NC(c3ccsc3)=C2c2ccccc2)cc([N+](=O)[O-])c1O` (centres unmarked) [4-(3-ethoxy-4-hydroxy-5-nitrophenyl)-5-phenyl-6-(thiophen-3-yl)-3,4-dihydropyrimidin-2(1H)-one], for which the inhibition at 10 µM is above 50%.

`CCOc1cc(C2NC(=O)NC(c3cccnc3)=C2c2ccccc2)cc([N+](=O)[O-])c1O` (centres unmarked) [4-(3-ethoxy-4-hydroxy-5-nitrophenyl)-5-phenyl-6-(pyridin-3-yl)-3,4-dihydropyrimidin-2(1H)-one]: the inhibition at 10 µM was above 50%.

Turning to `O=C1NC(c2ccccc2)=C(c2ccccc2)C(c2cc(Cl)c(O)c([N+](=O)[O-])c2)N1` (centres unmarked) [4-(3-chloro-4-hydroxy-5-nitrophenyl)-5,6-diphenyl-3,4-dihydropyrimidin-2(1H)-one], the inhibition at 10 µM is above 50%.

Consider `CCOc1cc(C2NC(=O)NC(c3ccccc3)=C2c2cccs2)cc([N+](=O)[O-])c1O` (centres unmarked) [4-(3-ethoxy-4-hydroxy-5-nitrophenyl)-6-phenyl-5-(thiophen-2-yl)-3,4-dihydropyrimidin-2(1H)-one], for which the inhibition at 10 µM is above 50%.

In the case of `CCOc1cc(C2NC(=O)NC(c3cccnc3)=C2c2ccsc2)cc([N+](=O)[O-])c1O` (centres unmarked) [4-(3-ethoxy-4-hydroxy-5-nitrophenyl)-6-(pyridin-3-yl)-5-(thiophen-3-yl)-3,4-dihydropyrimidin-2(1H)-one], the inhibition at 10 µM was above 50%.

In the case of `CCOc1cc(C2NC(=O)NC(c3cnn(C)c3)=C2c2ccsc2)cc([N+](=O)[O-])c1O` (centres unmarked) [4-(3-ethoxy-4-hydroxy-5-nitrophenyl)-6-(1-methyl-1H-pyrazol-4-yl)-5-(thiophen-3-yl)-3,4-dihydropyrimidin-2(1H)-one], the inhibition at 10 µM was above 50%.

For the compound `CCOc1cc(C2NC(=O)NC(c3ccn(C)n3)=C2c2ccsc2)cc([N+](=O)[O-])c1O` (centres unmarked) [4-(3-ethoxy-4-hydroxy-5-nitrophenyl)-6-(1-methyl-1H-pyrazol-3-yl)-5-(thiophen-3-yl)-3,4-dihydropyrimidin-2(1H)-one], the inhibition at 10 µM was above 50%.

The experiment is the same for the next values; noted with them: read-out: NK3, % inhibition @ 10 μM; 10 μM test compound; [3H]SR142801, CHO cell membranes.
As to `CCOc1cc(C2NC(=O)NC(c3ccccc3)=C2c2ccsc2)cc([N+](=O)[O-])c1O` (centres unmarked) [4-(3-ethoxy-4-hydroxy-5-nitrophenyl)-6-phenyl-5-(thiophen-3-yl)-3,4-dihydropyrimidin-2(1H)-one], the inhibition at 10 µM came to 97%.

With `CCOc1cc(C2NC(=O)NC(c3ccccc3)=C2c2ccccc2)cc([N+](=O)[O-])c1O` (centres unmarked) [4-(3-ethoxy-4-hydroxy-5-nitrophenyl)-5,6-diphenyl-3,4-dihydropyrimidin-2(1H)-one], the inhibition at 10 µM came to 88%.

Regarding `CCOc1cc(C2NC(=O)NC(c3cccnc3)=C2c2ccccc2)cc([N+](=O)[O-])c1O` (centres unmarked) [4-(3-ethoxy-4-hydroxy-5-nitrophenyl)-5-phenyl-6-(pyridin-3-yl)-3,4-dihydropyrimidin-2(1H)-one], the inhibition at 10 µM was found to be 92%.

As for `CCOc1cc(C2NC(=O)NC(c3cccnc3)=C2c2ccsc2)cc([N+](=O)[O-])c1O` (centres unmarked) [4-(3-ethoxy-4-hydroxy-5-nitrophenyl)-6-(pyridin-3-yl)-5-(thiophen-3-yl)-3,4-dihydropyrimidin-2(1H)-one], the inhibition at 10 µM amounted to 63%.

In the case of `CCOc1cc(C2NC(=O)NC(c3ccn(C)n3)=C2c2ccsc2)cc([N+](=O)[O-])c1O` (centres unmarked) [4-(3-ethoxy-4-hydroxy-5-nitrophenyl)-6-(1-methyl-1H-pyrazol-3-yl)-5-(thiophen-3-yl)-3,4-dihydropyrimidin-2(1H)-one], the inhibition at 10 µM is 61%.

The target of the next experiment is T1, human NK3 receptor. Briefly: Human NK3 receptor binding assay at 1 uM. Particulars: 1 μM test compound; [3H]SR142801, CHO cell membranes; read-out: percent inhibition at 1 μM. The procedure: Antagonist activity was evaluated at a concentration of 1 μM for a representative subset of test compounds, and the results were expressed as the percent inhibition at that concentration.
Each test compound was evaluated at a single concentration of 1 μM. […] The results are expressed as a percent of control specific binding ((measured specific binding/control specific binding)×100) obtained in the presence of the test compounds.
Regarding `CCOc1cc(C2NC(=O)NC(c3ccccc3)=C2c2ccccc2)cc2[nH]c(=O)oc12` (centres unmarked) [7-ethoxy-5-(2-oxo-5,6-diphenyl-1,2,3,4-tetrahydropyrimidin-4-yl)benzo[d]oxazol-2(3H)-one], the inhibition at 1 µM is above 50%.

For `CCOc1cc(C2NC(=O)NC(c3ccc(C(F)(F)F)cc3)=C2c2ccccc2)cc([N+](=O)[O-])c1O` (centres unmarked) [4-(3-ethoxy-4-hydroxy-5-nitrophenyl)-5-phenyl-6-(4-(trifluoromethyl)phenyl)-3,4-dihydropyrimidin-2(1H)-one], the inhibition at 1 µM is above 50%.

For the compound `CCOc1cc(C2NC(=O)NC(c3ccc(F)c(Cl)c3)=C2c2ccccc2)cc([N+](=O)[O-])c1O` (centres unmarked) [6-(3-chloro-4-fluorophenyl)-4-(3-ethoxy-4-hydroxy-5-nitrophenyl)-5-phenyl-3,4-dihydropyrimidin-2(1H)-one], the inhibition at 1 µM was above 50%.

Turning to `CCOc1cc(C2NC(=O)NC(c3ccccc3)=C2c2cccc(CC)c2)cc([N+](=O)[O-])c1O` (centres unmarked) [4-(3-ethoxy-4-hydroxy-5-nitrophenyl)-5-(3-ethylphenyl)-6-phenyl-3,4-dihydropyrimidin-2(1H)-one], the inhibition at 1 µM was above 50%.

Take `CCOc1cc(C2NC(=O)NC(c3ccccc3)=C2c2ccccc2Cl)cc([N+](=O)[O-])c1O` (centres unmarked) [5-(2-chlorophenyl)-4-(3-ethoxy-4-hydroxy-5-nitrophenyl)-6-phenyl-3,4-dihydropyrimidin-2(1H)-one]: the inhibition at 1 µM is above 50%.

Regarding `CCOc1cc(C2NC(=O)NC(c3ccccc3)=C2c2ccc(F)c(F)c2)cc([N+](=O)[O-])c1O` (centres unmarked) [5-(3,4-difluorophenyl)-4-(3-ethoxy-4-hydroxy-5-nitrophenyl)-6-phenyl-3,4-dihydropyrimidin-2(1H)-one], the inhibition at 1 µM is above 50%.

Turning to `CCOc1cc(C2NC(=O)NC(c3ccc(Cl)cc3)=C2c2ccccc2)cc([N+](=O)[O-])c1O` (centres unmarked) [6-(4-chlorophenyl)-4-(3-ethoxy-4-hydroxy-5-nitrophenyl)-5-phenyl-3,4-dihydropyrimidin-2(1H)-one], the inhibition at 1 µM is above 50%.

Regarding `CCOc1cc(C2NC(=O)NC(c3cccc(Cl)c3)=C2c2ccccc2)cc([N+](=O)[O-])c1O` (centres unmarked) [6-(3-chlorophenyl)-4-(3-ethoxy-4-hydroxy-5-nitrophenyl)-5-phenyl-3,4-dihydropyrimidin-2(1H)-one], the inhibition at 1 µM is above 50%.

As to `CCOc1cc(C2NC(=O)NC(c3cc(F)cc(F)c3)=C2c2ccccc2)cc([N+](=O)[O-])c1O` (centres unmarked) [6-(3,5-difluorophenyl)-4-(3-ethoxy-4-hydroxy-5-nitrophenyl)-5-phenyl-3,4-dihydropyrimidin-2(1H)-one], the inhibition at 1 µM is above 50%.

In the case of `CCOc1cc(C2NC(=O)NC(c3ccccc3)=C2c2ccccc2)cc(Br)c1O` (centres unmarked) [4-(3-bromo-5-ethoxy-4-hydroxyphenyl)-5,6-diphenyl-3,4-dihydropyrimidin-2(1H)-one], the inhibition at 1 µM is above 50%.

As to `CCOc1cc(C2NC(=O)NC(c3ccccc3F)=C2c2ccccc2)cc([N+](=O)[O-])c1O` (centres unmarked) [4-(3-ethoxy-4-hydroxy-5-nitrophenyl)-6-(2-fluorophenyl)-5-phenyl-3,4-dihydropyrimidin-2(1H)-one], the inhibition at 1 µM is above 50%.

As to `CCOc1cc(C2NC(=O)NC(c3ccccc3)=C2c2ccccc2C)cc([N+](=O)[O-])c1O` (centres unmarked) [4-(3-ethoxy-4-hydroxy-5-nitrophenyl)-6-phenyl-5-o-tolyl-3,4-dihydropyrimidin-2(1H)-one], the inhibition at 1 µM is above 50%.

Consider `CCOc1cc(C2NC(=O)NC(c3ccccc3)=C2c2cccc(F)c2)cc([N+](=O)[O-])c1O` (centres unmarked) [4-(3-ethoxy-4-hydroxy-5-nitrophenyl)-5-(3-fluorophenyl)-6-phenyl-3,4-dihydropyrimidin-2(1H)-one], for which the inhibition at 1 µM is above 50%.

Regarding `CCOc1cc(C2NC(=O)NC(c3ccccc3)=C2c2ccc(Cl)cc2)cc([N+](=O)[O-])c1O` (centres unmarked) [5-(4-chlorophenyl)-4-(3-ethoxy-4-hydroxy-5-nitrophenyl)-6-phenyl-3,4-dihydropyrimidin-2(1H)-one], the inhibition at 1 µM was above 50%.

For `CCOc1cc(C2NC(=O)NC(c3ccccc3)=C2c2ccccc2)cc(F)c1O` (centres unmarked) [4-(3-ethoxy-5-fluoro-4-hydroxyphenyl)-5,6-diphenyl-3,4-dihydropyrimidin-2(1H)-one], the inhibition at 1 µM was above 50%.

With `O=C1NC(c2ccccc2)=C(c2ccccc2)C(c2ccc(O)c([N+](=O)[O-])c2)N1` (centres unmarked) [4-(4-hydroxy-3-nitrophenyl)-5,6-diphenyl-3,4-dihydropyrimidin-2(1H)-one], the inhibition at 1 µM was above 50%.

Turning to `CCOc1cc(C2NC(=O)NC(c3ccccc3)=C2c2ccc(C)cc2)cc([N+](=O)[O-])c1O` (centres unmarked) [4-(3-ethoxy-4-hydroxy-5-nitrophenyl)-6-phenyl-5-p-tolyl-3,4-dihydropyrimidin-2(1H)-one], the inhibition at 1 µM was above 50%.

Take `CCOc1cc(C2NC(=O)NC(C3CCCC3)=C2c2ccccc2)cc([N+](=O)[O-])c1O` (centres unmarked) [6-cyclopentyl-4-(3-ethoxy-4-hydroxy-5-nitrophenyl)-5-phenyl-3,4-dihydropyrimidin-2(1H)-one]: the inhibition at 1 µM is above 50%.

On to `CCOc1cc(C2NC(=O)NC(c3ccc(F)c(F)c3)=C2c2ccccc2)cc([N+](=O)[O-])c1O` (centres unmarked) [6-(3,4-difluorophenyl)-4-(3-ethoxy-4-hydroxy-5-nitrophenyl)-5-phenyl-3,4-dihydropyrimidin-2(1H)-one], for which the inhibition at 1 µM was above 50%.

As to `CCOc1cc(C2NC(=O)NC(c3ccc(F)cc3)=C2c2ccccc2)cc([N+](=O)[O-])c1O` (centres unmarked) [4-(3-ethoxy-4-hydroxy-5-nitrophenyl)-6-(4-fluorophenyl)-5-phenyl-3,4-dihydropyrimidin-2(1H)-one], the inhibition at 1 µM is above 50%.

On to `N#Cc1cccc(C2NC(=O)NC(c3ccccc3)=C2c2ccccc2)c1O` (centres unmarked) [2-hydroxy-3-(2-oxo-5,6-diphenyl-1,2,3,4-tetrahydropyrimidin-4-yl)benzonitrile], for which the inhibition at 1 µM was above 50%.

In general, inhibition refers to the percentage by which the read-out fell short of the control.
